The NIST ThermoML archive (doi:10.1016/j.fluid.2018.04.024)
Numbers after ± are expanded uncertainties.

Settings: Liquid, Vibrating tube method

CCCCCC(=O)OC [methyl hexanoate]
mass density [kg/m3]
Settings	293.15 K	303.15 K	313.15 K	323.15 K	333.15 K	343.15 K	353.15 K	363.15 K
100 kPa	884.48 ± 0.91	874.56 ± 0.9	865.26 ± 0.89	855.18 ± 0.88	845.43 ± 0.87	835.2 ± 0.86	825.57 ± 0.85	815.64 ± 0.85
1000 kPa	884.65 ± 0.91	875.42 ± 0.9	865.64 ± 0.89	856.16 ± 0.88	846.26 ± 0.88	836.39 ± 0.87	826.5 ± 0.86	816.87 ± 0.85
3000 kPa	886.42 ± 0.91	877.13 ± 0.91	867.5 ± 0.9	858.01 ± 0.89	848.43 ± 0.88	838.54 ± 0.87	828.96 ± 0.86	819.47 ± 0.85
5000 kPa	887.67 ± 0.92	878.76 ± 0.91	869.26 ± 0.9	859.89 ± 0.89	850.38 ± 0.88	840.78 ± 0.88	831.13 ± 0.87	821.87 ± 0.86
10000 kPa	891.64 ± 0.93	882.75 ± 0.92	873.55 ± 0.91	864.44 ± 0.9	855.15 ± 0.9	845.7 ± 0.89	836.55 ± 0.88	827.32 ± 0.87
15000 kPa	895.33 ± 0.93	886.63 ± 0.93	877.59 ± 0.92	868.76 ± 0.91	859.63 ± 0.91	850.49 ± 0.9	841.75 ± 0.89	833.11 ± 0.89
20000 kPa	898.81 ± 0.94	890.21 ± 0.94	881.48 ± 0.93	872.98 ± 0.92	864 ± 0.92	855.28 ± 0.91	846.44 ± 0.91	837.93 ± 0.9
25000 kPa	902.28 ± 0.95	893.78 ± 0.94	885.29 ± 0.94	876.76 ± 0.93	868.18 ± 0.93	859.46 ± 0.92	851.08 ± 0.92	842.64 ± 0.91
30000 kPa	905.55 ± 0.96	897.24 ± 0.95	888.86 ± 0.95	880.55 ± 0.94	871.99 ± 0.94	863.7 ± 0.93	855.46 ± 0.93	847.27 ± 0.93
35000 kPa	908.69 ± 0.96	900.52 ± 0.96	892.33 ± 0.96	884.15 ± 0.95	875.8 ± 0.95	867.75 ± 0.95	859.68 ± 0.94	851.7 ± 0.94
40000 kPa	911.73 ± 0.97	903.67 ± 0.97	895.54 ± 0.96	887.68 ± 0.96	879.63 ± 0.96	871.46 ± 0.96	863.59 ± 0.95	856.02 ± 0.95
50000 kPa	917.83 ± 0.98	909.79 ± 0.98	901.99 ± 0.98	894.33 ± 0.98	886.48 ± 0.98	878.77 ± 0.98	871.08 ± 0.98	863.88 ± 0.98
60000 kPa	923.06 ± 1	915.57 ± 1	907.83 ± 0.99	900.65 ± 0.99	892.97 ± 0.99	885.3 ± 1	878.16 ± 1	871.24 ± 1

CCCCCCC(=O)OC [methyl heptanoate]
mass density [kg/m3]
Settings	293.15 K	303.15 K	313.15 K	323.15 K	333.15 K	343.15 K	353.15 K	363.15 K
100 kPa	880.16 ± 0.91	870.66 ± 0.9	861.82 ± 0.89	852.25 ± 0.88	843.03 ± 0.87	833.48 ± 0.86	824.35 ± 0.85	815.19 ± 0.84
1000 kPa	880.29 ± 0.91	871.46 ± 0.9	862.16 ± 0.89	853.12 ± 0.88	843.81 ± 0.87	834.64 ± 0.86	825.27 ± 0.86	816.36 ± 0.85
3000 kPa	881.98 ± 0.91	873.07 ± 0.9	863.9 ± 0.89	854.89 ± 0.89	845.84 ± 0.88	836.7 ± 0.87	827.61 ± 0.86	818.75 ± 0.85
5000 kPa	883.19 ± 0.91	874.66 ± 0.91	865.62 ± 0.9	856.64 ± 0.89	847.68 ± 0.88	838.79 ± 0.87	829.66 ± 0.87	821 ± 0.86
10000 kPa	886.99 ± 0.92	878.5 ± 0.92	869.71 ± 0.91	860.97 ± 0.9	852.16 ± 0.89	843.47 ± 0.89	834.76 ± 0.88	826.14 ± 0.87
15000 kPa	890.49 ± 0.93	882.18 ± 0.92	873.55 ± 0.92	865.07 ± 0.91	856.43 ± 0.9	848.02 ± 0.9	839.63 ± 0.89	831.57 ± 0.89
20000 kPa	893.86 ± 0.94	885.64 ± 0.93	877.29 ± 0.93	869.08 ± 0.92	860.63 ± 0.92	852.59 ± 0.91	844.11 ± 0.9	836.11 ± 0.9
25000 kPa	897.18 ± 0.95	889.08 ± 0.94	880.89 ± 0.94	872.69 ± 0.93	864.64 ± 0.93	856.55 ± 0.92	848.48 ± 0.92	840.56 ± 0.91
30000 kPa	900.36 ± 0.95	892.3 ± 0.95	884.32 ± 0.95	876.31 ± 0.94	868.31 ± 0.94	860.57 ± 0.93	852.65 ± 0.93	845.01 ± 0.93
35000 kPa	903.34 ± 0.96	895.46 ± 0.96	887.66 ± 0.95	879.74 ± 0.95	871.91 ± 0.95	864.43 ± 0.94	856.65 ± 0.94	849.23 ± 0.94
40000 kPa	906.22 ± 0.97	898.49 ± 0.97	890.73 ± 0.96	883.15 ± 0.96	875.61 ± 0.96	867.96 ± 0.96	860.37 ± 0.95	853.33 ± 0.95
50000 kPa	912.14 ± 0.98	904.43 ± 0.98	896.98 ± 0.98	889.53 ± 0.98	882.2 ± 0.98	875 ± 0.98	867.57 ± 0.98	860.82 ± 0.98
60000 kPa	917.16 ± 1	909.95 ± 0.99	902.59 ± 0.99	895.63 ± 0.99	888.39 ± 1	881.19 ± 1	874.32 ± 1	867.91 ± 1
